In PubChem BioAssay AID1919001 (Molecular Pharmacology Branch, DTP, NCI, 2023):

Tested on: 699152-130-R-J1-PDC complex spheroid growth
Assay: Anticancer human tumor 699152-130-R-J1-PDC patient-derived pancreatic carcinoma cell line growth inhibition [AhR]
Conditions: for IC50: curve of first compound; for viability, T/C: stronger effect = lower value
Outline: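 Agents were dosed in half-log steps down from roughly clinical Cmax, or from 10 microM where Cmax was unknown, alone and with AhR antagonists. Read-out: percent test/control growth of tumor spheroids containing HUVEC and MSC stromal cells.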

[1] = second compound 0.1 µM, first compound 0.0316 µM
[2] = second compound 0.1 µM, first compound 0.1 µM
[3] = second compound 0.1 µM, first compound 0.316 µM
[4] = second compound 0.1 µM, first compound 1 µM
[5] = second compound 0.1 µM, first compound 3.16 µM
[6] = second compound 0.1 µM, first compound 10 µM
[7] = second compound 0.316 µM, first compound 0.0316 µM
[8] = second compound 0.316 µM, first compound 0.1 µM
[9] = second compound 0.316 µM, first compound 0.316 µM
[10] = second compound 0.316 µM, first compound 1 µM
[11] = second compound 0.316 µM, first compound 3.16 µM
[12] = second compound 0.316 µM, first compound 10 µM
[13] = second compound 1 µM, first compound 0.0316 µM
[14] = second compound 1 µM, first compound 0.1 µM
[15] = second compound 1 µM, first compound 0.316 µM
[16] = second compound 1 µM, first compound 1 µM
[17] = second compound 1 µM, first compound 3.16 µM
[18] = second compound 1 µM, first compound 10 µM
[19] = second compound 3.16 µM, first compound 0.0316 µM
[20] = second compound 3.16 µM, first compound 0.1 µM
[21] = second compound 3.16 µM, first compound 0.316 µM
[22] = second compound 3.16 µM, first compound 1 µM
[23] = second compound 3.16 µM, first compound 3.16 µM
[24] = second compound 3.16 µM, first compound 10 µM
[25] = second compound 10 µM, first compound 0.0316 µM
[26] = second compound 10 µM, first compound 0.1 µM
[27] = second compound 10 µM, first compound 0.316 µM
[28] = second compound 10 µM, first compound 1 µM
[29] = second compound 10 µM, first compound 3.16 µM
[30] = second compound 10 µM, first compound 10 µM
[31] = second compound 0.1 µM, first compound 0.00316 µM
[32] = second compound 0.1 µM, first compound 0.01 µM
[33] = second compound 0.316 µM, first compound 0.00316 µM
[34] = second compound 0.316 µM, first compound 0.01 µM
[35] = second compound 1 µM, first compound 0.00316 µM
[36] = second compound 1 µM, first compound 0.01 µM
[37] = second compound 3.16 µM, first compound 0.00316 µM
[38] = second compound 3.16 µM, first compound 0.01 µM
[39] = second compound 10 µM, first compound 0.00316 µM
[40] = second compound 10 µM, first compound 0.01 µM
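Also: compound exposure lasted 7 days after spheroids had grown for 3 days.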

Row | Compound | IC50 (second compound 0.1 µM) | IC50 (second compound 0.316 µM) | IC50 (second compound 1 µM) | IC50 (second compound 3.16 µM) | IC50 (second compound 10 µM) | viability, T/C [1] | viability, T/C [2] | viability, T/C [3] | viability, T/C [4] | viability, T/C [7] | viability, T/C [8] | viability, T/C [9] | viability, T/C [10] | viability, T/C [13] | viability, T/C [14] | viability, T/C [15] | viability, T/C [19] | viability, T/C [20] | viability, T/C [25] | viability, T/C [26] | other results
1 | CC(C)c1c(-c2ccccc2)nc2c(C#N)c[nH]n2c1=O + CC(CO)NC(=O)c1cc(-c2ccc(Cl)cc2)nn(-c2cnn(C)c2)c1=O | > 10000 nM | > 10000 nM | > 10000 nM | > 10000 nM | > 10000 nM | 97% | 97.8% | 109% | 100% | 93.6% | 98.7% | 86.4% | 87.9% | 99.7% | 104% | 105% | 92.4% | 90.3% | 95.6% | 100% | viability, T/C [5]: 94.9%; viability, T/C [6]: 95.5%; viability, T/C [11]: 93.3%; viability, T/C [12]: 86.6%; viability, T/C [16]: 97.3%; viability, T/C [17]: 85.5%; viability, T/C [18]: 86.8%; viability, T/C [21]: 94.8%; viability, T/C [22]: 95.4%; viability, T/C [23]: 83.5%; viability, T/C [24]: 79.5%; viability, T/C [27]: 82.1%; viability, T/C [28]: 82.7%; viability, T/C [29]: 85%; viability, T/C [30]: 79.8%
2 | CC[C@@]1(O)C(=O)OCc2c1cc1n(c2=O)Cc2cc3c(CN(C)C)c(O)ccc3nc2-1 + Cc1ccccc1N=Nc1ccc(NC(=O)c2ccnn2C)c(C)c1 | > 100 nM | 75 nM | > 100 nM | > 100 nM | > 100 nM | 68.8% | 55.1% | – | – | 63.5% | 45.5% | – | – | 60.5% | 50.6% | – | 60.9% | 54.3% | 70% | 50.8% | viability, T/C (second compound 0.1 µM, first compound 0.000316 µM): 95.9%; viability, T/C (second compound 0.1 µM, first compound 0.001 µM): 99%; viability, T/C [31]: 101%; viability, T/C [32]: 82.7%; viability, T/C (second compound 0.316 µM, first compound 0.000316 µM): 97.9%; viability, T/C (second compound 0.316 µM, first compound 0.001 µM): 94%; viability, T/C [33]: 99.6%; viability, T/C [34]: 80.1%; viability, T/C (second compound 1 µM, first compound 0.000316 µM): 94.2%; viability, T/C (second compound 1 µM, first compound 0.001 µM): 98.1%; viability, T/C [35]: 94.2%; viability, T/C [36]: 77.9%; viability, T/C (second compound 3.16 µM, first compound 0.000316 µM): 96.2%; viability, T/C (second compound 3.16 µM, first compound 0.001 µM): 105%; viability, T/C [37]: 92.9%; viability, T/C [38]: 86.5%; viability, T/C (second compound 10 µM, first compound 0.000316 µM): 107%; viability, T/C (second compound 10 µM, first compound 0.001 µM): 117%; viability, T/C [39]: 86.6%; viability, T/C [40]: 82.7%
3 | COc1cc(C2c3cc4c(cc3C(OC3OC5COC(C)OC5C(O)C3O)C3COC(=O)C23)OCO4)cc(OC)c1O (stereo not given) + Cc1ccccc1N=Nc1ccc(NC(=O)c2ccnn2C)c(C)c1 | > 10000 nM | 4100 nM | > 10000 nM | 7200 nM | > 10000 nM | 96.8% | 117% | 74.5% | 62.5% | 95.9% | 88.8% | 66.2% | 62.1% | 104% | 106% | 81% | 108% | 89.4% | 106% | 88.7% | viability, T/C [5]: 48.2%; viability, T/C [6]: 48.2%; viability, T/C [11]: 53.6%; viability, T/C [12]: 43.4%; viability, T/C [16]: 62.1%; viability, T/C [17]: 60.6%; viability, T/C [18]: 50.5%; viability, T/C [21]: 65.4%; viability, T/C [22]: 62.5%; viability, T/C [23]: 54.4%; viability, T/C [24]: 47.3%; viability, T/C [27]: 55%; viability, T/C [28]: 65.1%; viability, T/C [29]: 65.1%; viability, T/C [30]: 57.1%
4 | COc1cccc2c1C(=O)c1c(O)c3c(c(O)c1C2=O)CC(O)(C(=O)CO)CC3OC1CC(N)C(O)C(C)O1 (stereo not given) + Cc1ccccc1N=Nc1ccc(NC(=O)c2ccnn2C)c(C)c1 | 214 nM | 285 nM | 228 nM | 154 nM | 213 nM | 65.5% | 59.3% | 44% | 25.2% | 58.8% | 58.8% | 45.8% | 30.2% | 65.5% | 62.9% | 43% | 62.1% | 53.2% | 74.4% | 63.1% | viability, T/C [5]: 4.33%; viability, T/C [6]: 8.93%; viability, T/C [11]: 2.54%; viability, T/C [12]: 9.1%; viability, T/C [16]: 26.5%; viability, T/C [17]: 4.29%; viability, T/C [18]: 6.64%; viability, T/C [21]: 40.9%; viability, T/C [22]: 26.1%; viability, T/C [23]: 2.91%; viability, T/C [24]: 8.18%; viability, T/C [27]: 42.6%; viability, T/C [28]: 22.7%; viability, T/C [29]: 4.35%; viability, T/C [30]: 10.2%
5 | Nc1ccn(C2OC(CO)C(O)C2(F)F)c(=O)n1 (stereo not given) + Cc1ccccc1N=Nc1ccc(NC(=O)c2ccnn2C)c(C)c1 | 156 nM | 470 nM | 390 nM | 458 nM | 1740 nM | 52.3% | 55.2% | 43.9% | 45.8% | 57.9% | 58.4% | 52.1% | 46.8% | 68.2% | 58.7% | 50.2% | 58.6% | 57.1% | 74.9% | 61.9% | viability, T/C [5]: 39.6%; viability, T/C [6]: 33.9%; viability, T/C [11]: 40.1%; viability, T/C [12]: 41.6%; viability, T/C [16]: 46.4%; viability, T/C [17]: 44.2%; viability, T/C [18]: 43.1%; viability, T/C [21]: 48.4%; viability, T/C [22]: 48.3%; viability, T/C [23]: 44.5%; viability, T/C [24]: 39.5%; viability, T/C [27]: 56.2%; viability, T/C [28]: 51.8%; viability, T/C [29]: 48.5%; viability, T/C [30]: 47.2%
6 | Nc1ncn(C2CC(O)C(CO)O2)c(=O)n1 (stereo not given) + Cc1ccccc1N=Nc1ccc(NC(=O)c2ccnn2C)c(C)c1 | > 1000 nM | > 1000 nM | > 1000 nM | > 1000 nM | > 1000 nM | 93.7% | 86.6% | 81.9% | 78.7% | 99.7% | 90.5% | 85.6% | 80.6% | 87.9% | 91.2% | 88.7% | 86.8% | 77.2% | 75.3% | 83.9% | viability, T/C [31]: 98.3%; viability, T/C [32]: 98.6%; viability, T/C [33]: 95.3%; viability, T/C [34]: 91.7%; viability, T/C [35]: 93.9%; viability, T/C [36]: 95.6%; viability, T/C [16]: 88.5%; viability, T/C [37]: 104%; viability, T/C [38]: 102%; viability, T/C [21]: 104%; viability, T/C [22]: 86.4%; viability, T/C [39]: 117%; viability, T/C [40]: 103%; viability, T/C [27]: 86.5%; viability, T/C [28]: 85.6%
